Data from US20030215788A1, “Cysteine thiol-protected peptides for use in immunoassays” (priority 1989, published 2003).
Non-standard residues stand in square brackets, D forms with d. No end group written: not given here. Cys∗ = not defined here

Key:
Format in all cases: binding, human
Antibodies to HIV-2 = test: EIA of dilutional series of HIV-2 positive sera
Protocol: Alternative methods of testing immunologic cross-reactivity were also used. In one such method L5 Peptides 39 and 39GC were tested by ELISA as previously described in U.S. Pat. No. 4,629,783. Briefly, stock solutions of peptides 39 and 39-GC were prepared in 6M Gu-HCl. Working dilutions of 20 µg/ml and 6 μg/ml respectively were prepared by dilution of stock solution 0 with 0.05M carbonate/bicarbonate buffer, pH 9.5. Wells of microtiter plates were filled with 100 μl of the working dilution of the peptides and allowed to stand overnight at room temperature. Coating solution was removed and 300 μl of blocking solution supra containing 0.5M ethanolamine was added for 1 hr. at room temperature. Blocking solution was removed and the plates were used immediately or allowed to dry and stored for later use.
Plasma samples were diluted (See Table 1) in sample dilution buffer (above) and 100 μl was added to individual wells. Samples were incubated for 30 min. at 37° C., then removed and the wells were washed six times with 0.15M NaCl, 0.05% Tween 20. One hundred microliters of goat antihuman Ig-horseradish peroxidase conjugate diluted in citrate buffer, pH 7.0, 1% normal goat serum was added to each well for 30 min at 37° C. prior to washing six times as above. The ELISA assay was developed by adding 100 μl/well of substrate solution (80 μg/ml tetramethyl benzidine, 0.0015% hydrogen peroxide in citrate/phosphate buffer, pH 6.0) for 30 min. at room temperature. Reactions were stopped with the addition of 100 μl of H2SO4 per well, and the ratio of the optical density at 450 nm to 630 nm was determined by an automated ELISA reader. The cutoff value for a positive result was set at 0.225 Absorbance Units above the average absorbance obtained for three known negative samples.
The immunoreactivity of HIV-2 peptides synthesized with protected cysteine thiol groups was determined. […] EIAs were performed as described above using viral lysates of HIV-1 and HIV-2 and peptides 39GC (HIV-1) and 41-2-3GC. Reactivity was determined for dilutions of two HIV-2 positive sera, F504282, obtained from a patient in New York, and “GOM,” provided by the Institut Pasteur.
The assays were EIAs performed generally as described above with varying dilutions of HIV-2 positive serum specimens.

[1] = system: antibodies to HTLV-I and/or HTLV-II; test: membrane concentration immunoassay with peptide 121-1GC1 on suspected HTLV-I/II sera; details: for Reactivity with deprotected peptide (color grade): 80 μg peptide/5 mg bead/550 μl
Protocol: Serum or plasma samples (40 μl) were diluted 1:10 in dilution buffer (10% heat inactivated normal goat serum, 1% dextran sulfate, 0.2% Tween 20, 2.5% nonfat dry milk, 15 ppm Kathon CG, 0.005% antifoam A, in 20 mM sodium citrate buffer, pH 7.4). Diluted specimen was added to the surface of the membrane and allowed to absorb completely. After waiting 2 min. from the time of specimen addition, 1 ml of wash buffer (0.01M Tris-buffered saline, pH 6.0, 0.05M NaCl, 0.005M MgCl2, 0.1% sodium azide, 10 μg/ml nitro blue tetrazolium, 0.5M potassium thiocyanate) was added and allowed to completely absorb through the membrane. About 0.150 ml (3 drops) of goat anti-human Ig-alkaline phosphatase conjugate diluted in 10 mM phosphate buffered saline, pH 7.4, 0.2% goat gamma globulin, 1% bovine serum albumin, 1 mM MgCl2, 0.1 mM ZnCl2 was added to the membrane and allowed to absorb completely. The membrane was washed twice as above (2 ml) and about 0.150 ml (3 drops) of substrate (1M 2-amino-2-methyl-1-propanol, pH 10.3, 5 mg/ml 3-indoxyl phosphate) was added and allowed to absorb completely. After about 5 min. about 1 ml of 0.5M EDTA, pH 7.4, was passed through the membrane to stop the reaction. After the stop solution was completely absorbed the units were read visually or semi-quantitatively by reflectance.
A wide variety of positive, negative, EIA positive/western blot a typical and immune sensitized specimens have been tested with the preferred peptide 39 analog, peptide 39-GC, as the test antigen.
Results of assays with peptide 121-1GC1 were compared to those obtained with other HTLV-I/II tests, such as the polymerase chain reaction (PCR), radioimmunoprecipitation (RIP), Western blot (WB), and viral lysate EIAS. The procedure as described in Example II was used for peptide 121-1GC1, except that two drops of samples were used and the conjugate was used at a two-fold higher concentration. The assays were performed with 10 serum samples suspected of containing antibodies to HTLV-I and/or HTLV-II. The PCR assay for HTLV-II was performed generally according to PCR Technology, Principles and Applications for DNA Amplification, ed. H. A. Ehrlich, Stockton Press, N.Y. (1989), incorporated herein by reference.
In other experiments, screening of the HTLV-I peptide in a variety of forms against a serum panel of suspected HTLV-I/II positive individuals yielded inconclusive results when compared to results obtained by RIP, Western blot, and commercially available HTLV-I EIA assays.

Antibodies to HTLV-I = test: HTLV-I peptides on latex microparticles tested for reactivity with control sera; details: Serum Sample 40359, HTLV-I EIA positive control, undiluted; 50 μg peptide/5 mg beads/550 μl

Substance: Cys-Gly-Gly-Gln-Asp-Gln-Ala-Arg-Leu-Asn-Ser-Trp-Gly-Cys*-Ala-Phe-Arg-Gln-Val-Cys*-NH2 [Peptide 41-2-3GC]
- Reactivity in EIA (Antibodies to HIV-2; HIV-2 positive serum F504282 (A), 1:5): 3.000
- Reactivity in EIA (Antibodies to HIV-2; HIV-2 positive serum F504282 (A), 1:10): 3.000
- Reactivity in EIA (Antibodies to HIV-2; HIV-2 positive serum F504282 (A), 1:20): 3.000
- Reactivity in EIA (Antibodies to HIV-2; HIV-2 positive serum F504282 (A), 1:40): 2.828
- Reactivity in EIA (Antibodies to HIV-2; HIV-2 positive serum F504282 (A), 1:80): 2.107
- Reactivity in EIA (Antibodies to HIV-2; HIV-2 positive serum F504282 (A), 1:160): 1.441
- Reactivity in EIA (Antibodies to HIV-2; HIV-2 positive serum F504282 (A), 1:320): 0.941
- Reactivity in EIA (Antibodies to HIV-2; HIV-2 positive serum F504282 (A), 1:640): 0.588
- Reactivity in EIA (Antibodies to HIV-2; HIV-2 positive serum F504282 (A), 1:1280): 0.302
- Reactivity in EIA (Antibodies to HIV-2; HIV-2 positive serum F504282 (A), 1:2560): 0.180
- Reactivity in EIA (Antibodies to HIV-2; HIV-2 positive serum F504282 (A), Neat): 3.000
- Reactivity in EIA (Antibodies to HIV-2; HIV-2 positive serum GOM (B), 1:2): 3.000
- Reactivity in EIA (Antibodies to HIV-2; HIV-2 positive serum GOM (B), 1:4): 3.000
- Reactivity in EIA (Antibodies to HIV-2; HIV-2 positive serum GOM (B), 1:8): 3.000
- Reactivity in EIA (Antibodies to HIV-2; HIV-2 positive serum GOM (B), 1:16): 3.000
- Reactivity in EIA (Antibodies to HIV-2; HIV-2 positive serum GOM (B), 1:32): 3.000
- Reactivity in EIA (Antibodies to HIV-2; HIV-2 positive serum GOM (B), 1:64): 2.524
- Reactivity in EIA (Antibodies to HIV-2; HIV-2 positive serum GOM (B), 1:128): 2.202
- Reactivity in EIA (Antibodies to HIV-2; HIV-2 positive serum GOM (B), 1:256): 1.452
- Reactivity in EIA (Antibodies to HIV-2; HIV-2 positive serum GOM (B), 1:512): 0.811
- Reactivity in EIA (Antibodies to HIV-2; HIV-2 positive serum GOM (B), 1:1024): 0.571
- Reactivity in EIA (Antibodies to HIV-2; HIV-2 serum PIN, 1:2): 3.000
- Reactivity in EIA (Antibodies to HIV-2; HIV-2 serum PIN, 1:4): 3.000
- Reactivity in EIA (Antibodies to HIV-2; HIV-2 serum PIN, 1:8): 2.596
- Reactivity in EIA (Antibodies to HIV-2; HIV-2 serum PIN, 1:16): 1.940
- Reactivity in EIA (Antibodies to HIV-2; HIV-2 serum PIN, 1:32): 1.209
- Reactivity in EIA (Antibodies to HIV-2; HIV-2 serum PIN, 1:64): 0.582
- Reactivity in EIA (Antibodies to HIV-2; HIV-2 serum PIN, 1:128): 0.368
- Reactivity in EIA (Antibodies to HIV-2; HIV-2 serum PIN, 1:256): 0.186
- Reactivity in EIA (Antibodies to HIV-2; HIV-2 serum S, 1:2): 3.000
- Reactivity in EIA (Antibodies to HIV-2; HIV-2 serum S, 1:4): 3.000
- Reactivity in EIA (Antibodies to HIV-2; HIV-2 serum S, 1:8): 3.000
- Reactivity in EIA (Antibodies to HIV-2; HIV-2 serum S, 1:16): 3.000
- Reactivity in EIA (Antibodies to HIV-2; HIV-2 serum S, 1:32): 2.632
- Reactivity in EIA (Antibodies to HIV-2; HIV-2 serum S, 1:64): 2.155
- Reactivity in EIA (Antibodies to HIV-2; HIV-2 serum S, 1:128): 1.442
- Reactivity in EIA (Antibodies to HIV-2; HIV-2 serum S, 1:256): 0.725
- Reactivity in EIA (Antibodies to HIV-2; HIV-2 serum S, 1:512): 0.516
- Reactivity in EIA (Antibodies to HIV-2; HIV-2 serum SAMB, 1:2): 3.000
- Reactivity in EIA (Antibodies to HIV-2; HIV-2 serum SAMB, 1:4): 3.000
- Reactivity in EIA (Antibodies to HIV-2; HIV-2 serum SAMB, 1:8): 2.854
- Reactivity in EIA (Antibodies to HIV-2; HIV-2 serum SAMB, 1:16): 2.710
- Reactivity in EIA (Antibodies to HIV-2; HIV-2 serum SAMB, 1:32): 2.112
- Reactivity in EIA (Antibodies to HIV-2; HIV-2 serum SAMB, 1:64): 1.400
- Reactivity in EIA (Antibodies to HIV-2; HIV-2 serum SAMB, 1:128): 0.834
- Reactivity in EIA (Antibodies to HIV-2; HIV-2 serum SAMB, 1:256): 0.404

Substance: H-CGG-QNRRGLDLLFWEQGGLC*KALQEQC*-NH2 (chain 1 H-CGGQNRRGLDLLFWEQGGLC; chain 2 KALQEQC-NH2; not fully specified; cysteine pairing not given here) [Peptide 121-1GC1]
- Reactivity with deprotected peptide (color grade) ([1]; Sample No. 39266): trace
- Reactivity with deprotected peptide (color grade) ([1]; Sample No. 89232): trace
- Reactivity with deprotected peptide (color grade) ([1]; Sample No. 89379): trace
- Reactivity with deprotected peptide (color grade) ([1]; Sample No. 89430): trace
- Reactivity with deprotected peptide (color grade) ([1]; Sample No. 89442): trace
- result on serum panel of suspected HTLV-I/II positive individuals ([1]; compared with RIP, Western blot and commercial HTLV-I EIA): Some samples which were purportedly positive by certain of the tests were negative

Substance: H-QNRRGLDLLFWEQGGLC*KALQEQC*-NH2 (chain 1 H-QNRRGLDLLFWEQGGL[Cys∗]; chain 2 KALQEQ[Cys∗]-NH2; not fully specified; reading uncertain; also: modified residues) [Peptide 121-1G1]
- Reactivity to Antibodies to HTLV-I (color grade) (Antibodies to HTLV-I): trace
